Laboratory results as given in US5876676A, “Preservation of blood platelets” (priority 1996, dated 1999).

Tests used:
[1] = following intracellular microinjection; cited from earlier work
[2] = tested on: pointed end actin nuclei in soluble fraction of platelet lysates; experiment: Calcium-sensitive soluble nucleation activity in supernatants of platelet lysates (pyrene-actin assembly); assay type: biochemical, human
Protocol: (§1) The effect of cell lysates on the rate and extent of pyrene-labeled rabbit skeletal muscle actin was determined as described previously (Hartwig, J., and P. Janmey, 1989 Biochim. Biophys. Acta. 1010:64-71). Suspensions of resting or thrombin-activated cells at concentrations of 1.4×10^8 /ml were permeabilized by the addition of 0.1 volume of 60 mM Pipes, 25 mM Hepes, 10 mM EGTA, 2 mM MgCl2, 0.75% Triton and 42 nM leupeptin, 10 mM benzamidine, and 0.123 mM aprotinin to inhibit proteases (Schliwa, J., et al., 1981 Proc. Natl. Acad. Sci. USA 80:5417-5420). 100 ul of detergent lysate was added to 190 ul of 100 mM KCl, 2 mM MgCl2, 0.5 mM ATP, 0.1 mM EGTA, 0.5 mM dithiothreitol, and 10 mM Tris, pH 7.0 and the polymerization rate assay was started by the addition of monomeric pyrene-labeled rabbit skeletal muscle actin to a final concentration of 2 uM. The relative contribution of nuclei with barbed or pointed ends in the cell lysates was determined by adding 2 uM cytochalasin B to the pyrene nucleation assay system. […] Activity not inhibited by cytochalasin B is considered pointed end assembly. The stability of nucleation activity in cell lysates was tested by comparing the stimulatory effect of fresh lysate on actin assembly with lysates allowed to stand for 30 s to 30 min at 37° C. before addition to the assembly assay. To determine if the measured stimulation of actin assembly and its decay with time was due to the growth of pyrene-actin addition onto cellular filaments subject to depolymerization in the diluted lysate, 0.1 uM phalloidin or phallacidin was added to the cell lysates during their preparation to stabilize the filaments. As shown in the results, all nucleation activity present in resting and activated cells was associated with the detergent-insoluble cytoskeleton. However, we also determined that the soluble phase from cells permeabilized with detergent in the presence of EGTA contained calcium dependent nucleation activity. Detergent lysates from resting and thrombin-activated cells (30 s, 1 U/ml) were centrifuged at 10,000 g for 2 min at room temperature in a microcentrifuge. The supernatant was removed and added to the pyrene-based nucleation assay in the presence of 1 mM EGTA or CaCl2. The amount of pointed end activity in these soluble extracts was determined by adding a final concentration of 2 uM cytochalasin B to the pyrene-actin assembly assay.
In reference to Table II, lysates were prepared from resting thrombin-treated cells with detergent and centrifuged in a Sorvall Microspin 12S at 13,000 rpm for 1 min. Nucleation activity remaining in the supernatant after removal of the cytoskeletal fraction was determined. […] The data are expressed as mean±SD, n=4. […]

mice = conditions: cited from earlier work
[3] = tested on: barbed end of actin filaments; experiment: Pyrene-labeled actin assembly (nucleation) assay in detergent lysates of resting and thrombin-activated platelets; assay type: biochemical, human
Protocol: as §1, with “The stability of nucleation activity in cell lysates was tested by comparing the stimulatory effect of fresh lysate on actin assembly with lysates allowed to stand for 30 s to 30 min at 37° C. before addition to the assembly assay.” left out, “As shown in the results, all nucleation activity present in resting and activated cells was associated with the detergent-insoluble cytoskeleton.” left out, “Detergent lysates from resting and thrombin-activated cells (30 s, 1 U/ml) were centrifuged at 10,000 g for 2 min at room temperature in a microcentrifuge. The supernatant was removed and added to the pyrene-based nucleation assay in the presence of 1 mM EGTA or CaCl2.” left out
In reference to Table I, gel-filtered platelets were suspended to a concentration of 1.4×10^8 /ml in platelet buffer, rested for 30 minutes at 37° C., and then treated with or without 1 U/ml of thrombin for 15 s. […] Data are expressed as mean±SD, n=4.

platelets = experiment: Nucleation activity of cytoskeletons from platelets pre-incubated with cytochalasin B (pyrene-actin assembly, Table III); assay type: cell-based, human; conditions: for Assembly rate (barbed end): cytochalasin washed out; for Assembly rate (barbed end) / Assembly rate (pointed end): n=4
Protocol: The effect of inhibiting barbed end actin assembly in thrombin-activated cells before detergent lysis on the amount of nucleation activity was determined by preincubating resting platelet suspensions with 2 uM cytochalasin B for 5 min. Because it was necessary to wash out the cytochalasin B from some of the cytoskeletons before addition of the cell lysates to the pyrene assembly assay, the cells were first attached to glass coverslips while still in the presence of cytochalasin B. This was accomplished by sedimenting 0.3 ml of cell suspension onto a 12 mm round glass coverslip for 5 min at 250 g. Individual coverslips were removed, treated with thrombin for 15 s in the presence of cytochalasin B, permeabilized with 1× PHEM-Triton buffer containing 2 uM cytochalasin B for 15 s and then washed in PHEM buffer in the presence or absence of cytochalasin B. Coverslips were then immediately assayed for their ability to promote actin filament assembly as previously described by us using glass adherent macrophage cytoskeletons (Hartwig, J., and P. Janmey, 1989 Biochim. Biophys. Acta. 1010:64-71).
In reference to Table III, resting platelets were incubated with 2 μM cytochalasin B for 5 min, then adhered by centrifugation to 12-mm round glass coverslips coated with polylysine. Cells on the coverslips were exposed to 1 U/ml of thrombin for 30 s in the presence of cytochalasin B and then permeabilized with PHEM-Triton buffer. […] There were 4.2×10^7 platelets per assay. The data are expressed as mean ± SD, n=4. The barbed end assembly rate, initial pointed end addition rate and initial barbed end addition rate were as described in Table I.

cells in vitro = conditions: cited from earlier work
[4] = Activated (thrombin), + 2 μM CB, supernatant, mean±SD, n=4
[5] = Activated: 2 μM cytochalasin B, 1 U/ml thrombin 30 s
[6] = Activated: 2 μM cytochalasin B, then 1 U/ml thrombin 30 s
[7] = Resting platelets incubated with 2 μM cytochalasin B
[8] = Resting platelets incubated with 2 μM cytochalasin B 5 min

For `O=C(O)CN(CC(=O)O)c1ccccc1OCCOc1ccccc1N(CC(=O)O)CC(=O)O` [BAPTA, 1,2-bis(2-aminophenoxy) ethane N,N,-N',N'-tetraacetic acid], the “Binding to membranes or toxic effects” value [1] is listed as “little or no”.
In the case of `C=C1C(C)C2C(Cc3ccccc3)NC(=O)C23OC(=O)C=CC(O)CCCC(C)CC=CC3C1O` (stereo not shown) [cytochalasin B], the “Calcium-dependent soluble actin nucleation activity” value ([2]; 2 uM cytochalasin B, soluble fraction, thrombin-activated platelets) is reported as “completely unaffected”, the “Assembly Rate” value [2, 4] is reported as 0.55 ± 0.02 nM/s and the Pointed nuclei/platelet [2, 4] is reported as 5,000 ± 250. The “Subunits added to pointed ends” value [2, 4] was 1.0 ± 0.05 ×10^10 s^-1, the LD50 (mice; intraperitoneal) was 50 mg/kg and the “Time to clearance from all tissues but liver” value (mice; intraperitoneal) was at most 24 h. The “Recovery of injected cytochalasin B” value (mice; within a few minutes following injection) was 35%, the “Pyrene actin assembly onto actin filaments at the barbed end” value ([3]; 2 uM cytochalasin B) was “completely inhibited” and the “Stimulatory effect of lysates on pyrene-actin assembly rate” value ([3]; 2 uM cytochalasin B added to assay, lysates of platelets activated with 1 U/ml thrombin) was “abolished”. The “Effect on nucleation activity of lysates from resting cells” value ([3]; 2 uM cytochalasin B added to lysates, resting platelets) was “only a small effect”, the “Nucleation activity after cytochalasin B treatment of resting cells” value (platelets; 2 μM cytochalasin B, resting platelets) was “did not by itself result in nucleation activity” and the Barbed nuclei/platelet (platelets; [5]) was 380. The Pointed nuclei/platelet (platelets; [5]) was 1,980, the “Subunits added to barbed ends” value (platelets; [5]) was 3.9e+11 s⁻¹ and the “Subunits added to pointed ends” value (platelets; [5]) was 9.95e+10 s⁻¹. The “Assembly rate (barbed end)” value (platelets; [6]) was 1.59 nM/s, the “Assembly rate (pointed end)” value (platelets; [6]) was 0.55 nM/s and the Barbed nuclei/platelet (platelets; [7]) was 50. For the same compound, the Pointed nuclei/platelet (platelets; [7]) was 1,980, the “Subunits added to barbed ends” value (platelets; [7]) was 2e+10 s⁻¹ and the “Subunits added to pointed ends” value (platelets; [7]) was 9.95e+10 s⁻¹. For the same compound, the “Assembly rate (barbed end)” value (platelets; [8]) was 0.18 nM/s, the “Assembly rate (pointed end)” value (platelets; [8]) was 0.55 nM/s and the “Stimulation of pyrene-actin assembly rate by thrombin-activated, cytochalasin B-treated cytoskeletons compared with resting cells incubated with cytochalasin B” value (platelets; cytochalasin present during activation, washed away before assay) was “four-fold”. The MNTC (cells in vitro; 2 h) was at most 200 µM, the Non-cytotoxic concentration (cells in vitro; 2 h) was “up to 100 ug/ml” and the “Cytotoxicity on prolonged exposure” value (cells in vitro) was “reversible cytotoxicity”.
